Source: patent publication US20130131321A1, “LIGANDS FOR ANTIBODY AND Fc-FUSION PROTEIN PURIFICATION BY AFFINITY CHROMATOGRAPHY” (GRAFFINITY PHARMACEUTICALS GMBH, priority 2010, published 2013)

Test system: Tocilicumab
Assay: SPR screening of chemical microarrays, Tocilizumab
Assay type: binding, humanized
Settings: chemical microarray, immobilized ligand
From the text: Graffinity has developed high density chemical microarrays comprising thousands of small molecules immobilized onto gold chips. The arrays are constructed using maleimide-thiol coupling chemistry in combination with high density pintool spotting. For the construction, glass plates are microstructured by photolithographical methods in order to define up to 9,216 sensor fields per array. A subsequently applied gold coating provides the basis for the SPR effect and enables the formation of a binary, mixed self assembled monolayer (SAM) of two different thiols. […]
Surface plasmons are collective oscillations of electrons at a metal surface which can be resonantly excited by polarized light of appropriate wavelength and incidence angle. […] Processes which alter the local refractive index in close proximity to the metal surface (such as antibody binding to the immobilized ligands) can therefore be monitored sensitively. […] While scanning over a range of wavelengths covering the SPR resonance conditions, reflection images are recorded stepwise. […]
The experimental results of the microarray screening campaigns were analyzed by manual hit selection using in-house developed software routines as well as by an in-depth data analysis by commercially available data mining tools. […]

**Q.** With `COc1ccc(NC(=O)c2cc(-c3ccco3)n(C)n2)cc1C(=O)NCCCN` [Ligand L1, 5-[5-(2-Furyl)-1-methylpyrazol-3-yl]carboxamido-2-methoxybenzoic acid N-(3-aminopropyl)amide] as the compound, how does the “SPR binding to full length Tocilicumab” value read?
**A.** clearly bound
